Data reported in the NIST ThermoML archive (doi:10.1016/j.jct.2018.05.029).
Several values for one entry are separate records, joined by “and”; a condition that tells them apart may be missing. Equal values may be shown once. ± gives the expanded uncertainty stated by the source.

How the values were obtained:
[1] = Molar enthalpy of transition or fusion; conditions: Crystal; Adiabatic calorimetry

Cc1cc2ccccc2[nH]1 [2-methylindole]
Conditions	mass density	molar entropy [J/K/mol]	vapor or sublimation pressure
10 K, Crystal, Vacuum adiabatic calorimetry	–	0.7816 ± 0.025	–
20 K, Crystal, Vacuum adiabatic calorimetry	–	5.097 ± 0.058	–
30 K, Crystal, Vacuum adiabatic calorimetry	–	11.88 ± 0.075	–
40 K, Crystal, Vacuum adiabatic calorimetry	–	19.5 ± 0.1	–
50 K, Crystal, Vacuum adiabatic calorimetry	–	27.26 ± 0.13	–
60 K, Crystal, Vacuum adiabatic calorimetry	–	34.95 ± 0.16	–
70 K, Crystal, Vacuum adiabatic calorimetry	–	42.45 ± 0.18	–
80 K, Crystal, Vacuum adiabatic calorimetry	–	49.75 ± 0.21	–
90 K, Crystal, Vacuum adiabatic calorimetry	–	56.85 ± 0.32	–
100 K, Crystal, Vacuum adiabatic calorimetry	–	63.76 ± 0.34	–
120 K, Crystal, Vacuum adiabatic calorimetry	–	77.12 ± 0.37	–
140 K, Crystal, Vacuum adiabatic calorimetry	–	89.97 ± 0.41	–
160 K, Crystal, Vacuum adiabatic calorimetry	–	102.47 ± 0.44	–
180 K, Crystal, Vacuum adiabatic calorimetry	–	114.71 ± 0.48	–
200 K, Crystal, Vacuum adiabatic calorimetry	–	126.76 ± 0.52	–
220 K, Crystal, Vacuum adiabatic calorimetry	–	138.69 ± 0.55	–
240 K, Crystal, Vacuum adiabatic calorimetry	–	150.54 ± 0.58	–
260 K, Crystal, Vacuum adiabatic calorimetry	–	162.33 ± 0.62	–
280 K, Crystal, Vacuum adiabatic calorimetry	–	174.1 ± 0.66	–
298.15 K, Crystal, Vacuum adiabatic calorimetry	–	184.78 ± 0.69	–
298.15 K, Liquid, Vacuum adiabatic calorimetry	–	224.56 ± 0.81	–
300 K, Crystal, Vacuum adiabatic calorimetry	–	185.87 ± 0.69	–
300 K, Liquid, Vacuum adiabatic calorimetry	–	225.95 ± 0.81	–
320 K, Crystal, Vacuum adiabatic calorimetry	–	197.68 ± 0.73	–
320 K, Liquid, Vacuum adiabatic calorimetry	–	240.78 ± 0.86	–
331.97 K, Crystal, Vacuum adiabatic calorimetry	–	204.77 ± 0.75	–
331.97 K, Liquid, Vacuum adiabatic calorimetry	–	249.48 ± 0.89	–
339.98 K, Liquid, Inclined piston gauge	–	–	0.022 ± 0.0008 kPa
339.99 K, Liquid, Inclined piston gauge	–	–	0.022 ± 0.0008 kPa
340 K, Liquid, Vacuum adiabatic calorimetry	–	255.25 ± 0.91	–
349.98 K, Liquid, Inclined piston gauge	–	–	0.0439 ± 0.0008 kPa
359.98 K, Liquid, Inclined piston gauge	–	–	0.0849 ± 0.0009 kPa
360 K, Liquid, Vacuum adiabatic calorimetry	–	269.41 ± 0.95	–
369.98 K, Liquid, Inclined piston gauge	–	–	0.1565 ± 0.0009 kPa and 0.1564 ± 0.0009 kPa
379.98 K, Liquid, Inclined piston gauge	–	–	0.2769 ± 0.001 kPa
380 K, Liquid, Vacuum adiabatic calorimetry	–	283.28 ± 0.99	–
389.98 K, Liquid, Inclined piston gauge	–	–	0.4731 ± 0.0012 kPa
399.97 K, Liquid, Inclined piston gauge	–	–	0.7822 ± 0.0014 kPa
400 K, Liquid, Vacuum adiabatic calorimetry	–	296.88 ± 1	–
409.97 K, Liquid, Inclined piston gauge	–	–	1.255 ± 0.0018 kPa
419.96 K, Liquid, Inclined piston gauge	–	–	1.958 ± 0.0023 kPa
420 K, Liquid, Vacuum adiabatic calorimetry	–	310.21 ± 1.1	–
424.96 K, Liquid, Inclined piston gauge	–	–	2.423 ± 0.0027 kPa
424.97 K, Liquid, Inclined piston gauge	–	–	2.423 ± 0.0027 kPa
427.25 K, Liquid, Twin ebulliometer	–	–	2.666 ± 0.0079 kPa
429.96 K, Liquid, Inclined piston gauge	–	–	2.979 ± 0.0032 kPa
437.34 K, Liquid, Twin ebulliometer	–	–	4 ± 0.0079 kPa
440 K, Liquid, Vacuum adiabatic calorimetry	–	323.28 ± 1.1	–
444.87 K, Liquid, Twin ebulliometer	–	–	5.333 ± 0.008 kPa
456.04 K, Liquid, Twin ebulliometer	–	–	7.999 ± 0.008 kPa
460 K, Liquid, Small sample (50 mg) DSC	–	336.12 ± 7.8	–
464.4 K, Liquid, Twin ebulliometer	–	–	10.67 ± 0.008 kPa
471.16 K, Liquid, Twin ebulliometer	–	–	13.33 ± 0.008 kPa
478.17 K, Liquid, Twin ebulliometer	–	–	16.66 ± 0.009 kPa
480 K, Liquid, Small sample (50 mg) DSC	–	348.73 ± 8.1	–
483.99 K, Liquid, Twin ebulliometer	–	–	19.93 ± 0.009 kPa
491.65 K, Liquid, Twin ebulliometer	–	–	25.02 ± 0.009 kPa and 25.02 ± 0.01 kPa
499.35 K, Liquid, Twin ebulliometer	–	–	31.18 ± 0.011 kPa
500 K, Liquid, Small sample (50 mg) DSC	–	361.11 ± 8.4	–
507.08 K, Liquid, Twin ebulliometer	–	–	38.56 ± 0.012 kPa
514.86 K, Liquid, Twin ebulliometer	–	–	47.38 ± 0.014 kPa
520 K, Liquid, Small sample (50 mg) DSC	–	373.29 ± 8.7	–
522.68 K, Liquid, Twin ebulliometer	–	–	57.82 ± 0.016 kPa
530.55 K, Liquid, Twin ebulliometer	–	–	70.12 ± 0.018 kPa
538.45 K, Liquid, Twin ebulliometer	–	–	84.53 ± 0.02 kPa
540 K, Liquid, Small sample (50 mg) DSC	–	385.27 ± 9	–
546.4 K, Liquid, Twin ebulliometer	–	–	101.33 ± 0.023 kPa
554.39 K, Liquid, Twin ebulliometer	–	–	120.79 ± 0.03 kPa
560 K, Liquid, Small sample (50 mg) DSC	–	397.05 ± 9.2	–
562.43 K, Liquid, Twin ebulliometer	–	–	143.25 ± 0.03 kPa
570.5 K, Liquid, Twin ebulliometer	–	–	169.02 ± 0.04 kPa
578.62 K, Liquid, Twin ebulliometer	–	–	198.49 ± 0.04 kPa
580 K, Liquid, Small sample (50 mg) DSC	–	408.64 ± 9.5	–
586.77 K, Liquid, Twin ebulliometer	–	–	232.02 ± 0.04 kPa
594.97 K, Liquid, Twin ebulliometer	–	–	270.02 ± 0.05 kPa
600 K, Liquid, Small sample (50 mg) DSC	–	420.05 ± 9.8	–
620 K, Liquid, Small sample (50 mg) DSC	–	431.28 ± 10	–
640 K, Liquid, Small sample (50 mg) DSC	–	442.34 ± 10	–
660 K, Liquid, Small sample (50 mg) DSC	–	453.23 ± 11	–
680 K, Liquid, Small sample (50 mg) DSC	–	463.97 ± 11	–
700 K, Liquid, Small sample (50 mg) DSC	–	474.57 ± 11	–
788.8 K, Gas, DSC	176.5 ± 8.9 kg/m3	–	–
795.1 K, Liquid, DSC	470.4 ± 24 kg/m3	–	–
800.7 K, Liquid, DSC	433.9 ± 22 kg/m3	–	–
802.9 K, Liquid, DSC	399.3 ± 20 kg/m3	–	–
803 K, Gas, DSC	183.3 ± 12 kg/m3	–	–
803.6 K, Liquid, DSC	360.9 ± 18 kg/m3	–	–
807 K, Gas, DSC	238.4 ± 14 kg/m3	–	–
809.2 K, Gas, DSC	264.7 ± 29 kg/m3	–	–
809.6 K, Gas, DSC	268.7 ± 29 kg/m3 and 299.5 ± 38 kg/m3	–	–

101.33 kPa, Liquid
Conditions	mass density [kg/m3]
298.15 K, From volume and mass of a pressed pellet	1070 ± 43
342 K, Pycnometric method	1020 ± 20

Conditions	Triple point temperature [K]
Crystal, Adiabatic calorimetry	331.97 ± 0.039

Conditions	Molar enthalpy of transition or fusion [kcal/mol]
[1]	3.547 ± 0.00765
